In patent US20110257146A1, “Method of Treating Kcnq Related Disorders Using Organozinc Compounds” (The johns Hopkins University, priority 2006, published 2011):
Entries after “also recorded” stand apart in the source; their conditions may differ.

Assays:
KCNQ2/3 heteromultimers = molecular target: T1, KCNQ2/3 heteromultimers (Rattus norvegicus, UniProt O88943+O88944); experiment: Whole-cell voltage clamp of CHO cells expressing KCNQ2/3 heteromultimers; assay type: cell-based
T1 construct: expressed in transfected cells
Method: (§1) Cell culture and transient transfection—Chinese Hamster Ovary (CHO) cells were grown in 50/50 DMEM/F12 (Cellgro) with 10% FBS (Gibco), 100 U/ml penicillin (Cellgro), 100 μg/ml streptomycin (Cellgro) and 2 mM L-glutamine (Gibco). At 24 hours before transfection, cells were split and plated in 60 mm dishes and were transfected with Lipofectamine2000™ reagent (Invitrogen) according to the manufacturer's instruction. At 24 hours after transfection, cells were split and re-plated onto coverslips coated with poly-L-lysine (Sigma). Plasmid expressing CD4 cDNA as a marker was cotransfected with the channel cDNAs of hKCNQ1 (from Dr. Michael Sanguinetti), hKCNQ4 (from Dr. Vitya Vardanyan), rKCNQ2, rKCNQ3, and hKCNQ5 (from Drs. David McKinnon, Mark Shapiro, and Thomas Jentsch). Prior to recording, anti-CD4 Dynabeads (Dynal. Biotech. Inc.) were added into the medium to allow for identification of the transfected cells. Stable lines expressing Kv2.1, hERG, and Kv4.2 were generated by standard protocols using pcDNA3.1 and maintained at complete medium supplemented with 500 μg/ml G418. The N-type calcium channel stable line was a kind gift from Drs. Diane Lipscombe and David Yue.
(§2) Electrophysiological Recording—Standard whole-cell recording was used. Pipettes were pulled from borosilicate glass capillaries (TW150-4, World Precision Instruments, Sarasota, Fla.). When filled with the intracellular solution, the pipettes have resistances of […]. During the recording, constant perfusion of extracellular solution was maintained using a BPS perfusion system (ALA, Westbury, N.Y.). Pipette solution contained (mM): KCl 145, MgCl2 1, EGTA 5, HEPES 10, MgATP 5 (pH 7.3); extracellular solution contained (mM): NaCl 140, KCl 3, CaCl2 2, MgCl2 1.5, HEPES 10, glucose 10 (pH 7.4). Current and voltage were recorded using an Axopatch-200A amplifier, filtered at 1 kHz and digitized using a DigiData 1322A with pClamp 9.2 software (Axon Instruments, Foster City, Calif.). Series resistance compensation was also used and set to 60-80%.
Data and Statistical Analysis—Patch-clamp data were preprocessed using Clampfit 9.2 (Axon Instruments, Foster City, Calif.) and then analyzed in Origin 7 (OriginLab, Northampton, Mass.). The activation curve was fitted by the Boltzmann equation: G=(Gmax−Gmin)/[1+exp[(V−V1/2)/S]]+Gmin, where Gmax is the maximum conductance, Gmin is the minimum conductance, V1/2 is the voltage for half of the total numbers of channels to open, and S is the slope factor. The dose response curve was fitted by the Hill equation: E=Emax/(1+(EC50/C)^P), where Emax is the maximum response, C is the drug concentration, EC50 is the drug concentration producing half of the maximum response, and P is the Hill coefficient. The deactivation trace was fitted by the standard exponential equation: I(t)=ΣIi*exp(−t/τi), where I is the current, t is the time and τ is the time constant. Data are presented as means±SE. Significance was estimated using paired two-tailed Student's t-test.

KCNQ3 = molecular target: T2, KCNQ3 (Rattus norvegicus, UniProt O88944); experiment: Whole-cell voltage clamp of CHO cells expressing KCNQ3; assay type: cell-based; details: 10 μM ZnPy
T2 construct: expressed in transfected cells; host or cells: CHO cells
Method: as §1, with “Stable lines expressing Kv2.1, hERG, and Kv4.2 were generated by standard protocols using pcDNA3.1 and maintained at complete medium supplemented with 500 μg/ml G418. The N-type calcium channel stable line was a kind gift from Drs. Diane Lipscombe and David Yue.” left out
(§3) Electrophysiological Recording—Standard whole-cell recording was used. […] Current and voltage were recorded using an Axopatch-200A amplifier, filtered at 1 kHz and digitized using a DigiData 1322A with pClamp 9.2 software (Axon Instruments, Foster City, Calif.). […]
Data and Statistical Analysis—Patch-clamp data were preprocessed using Clampfit 9.2 (Axon Instruments, Foster City, Calif.) and then analyzed in Origin 7 (OriginLab, Northampton, Mass.). […]

KCNQ1 = molecular target: T3, KCNQ1 (Homo sapiens, UniProt P51787); experiment: Whole-cell voltage clamp of CHO cells expressing KCNQ1; assay type: cell-based; details: 10 μM ZnPy, extracellular
T3 construct: expressed in transfected cells; host or cells: CHO cells
Method: as §1, with “The N-type calcium channel stable line was a kind gift from Drs. Diane Lipscombe and David Yue.” left out
as §3

KCNQ4 = molecular target: T4, KCNQ4 (Homo sapiens, UniProt P56696); experiment: Whole-cell voltage clamp of CHO cells expressing KCNQ4; assay type: cell-based; details: 10 μM ZnPy, extracellular
T4 construct: expressed in transfected cells; host or cells: CHO cells
Method: as §1, with “The N-type calcium channel stable line was a kind gift from Drs. Diane Lipscombe and David Yue.” left out
as §3

[1] = molecular target: T5, Kv2.1 delay rectifier voltage-gated potassium channel (Homo sapiens, UniProt Q14721); experiment: Channel activity in Kv2.1 stable line; assay type: cell-based
T5 construct: expressed in transfected cells
Method: as §1, with “The N-type calcium channel stable line was a kind gift from Drs. Diane Lipscombe and David Yue.” left out
as §3

N-type calcium channel = molecular target: T6, N-type calcium channel (Homo sapiens, UniProt Q00975); experiment: Channel activity in N-type calcium channel stable line; assay type: cell-based
T6 construct: expressed in transfected cells; Diane Lipscombe and David Yue
Method: as §1, with “The N-type calcium channel stable line was a kind gift from Drs. Diane Lipscombe and David Yue.” left out
as §3

KCNQ2 (W236L) = molecular target: T7, KCNQ2 (W236L) (Rattus norvegicus, UniProt O88943, W236L); experiment: Whole-cell recording of KCNQ2 (W236L) mutant; assay type: cell-based; details: 2.5 μM ZnPy, −30 mV or +50 mV
T7 construct: expressed in transfected cells
Method: FIG. 8. Differential modulatory sites on KCNQ channel by ZnPy and retigabine. A. Left Panel. Representative KCNQ2 current was recorded with intracellular pipet solution supplemented with 10 μM ZnPy. The overlapping external application of ZnPy is as shown. Right Panel. G-V curves at different indicated recording times (0 to 12 minutes) upon establishing stable seal are shown. The intracellular perfusion (with or without EGTA) was first calibrated by using compatible molecular weight dye. […] The levels of current potentiation at +50 mV and −30 mV were calculated by Idrug/Icontrol, and shown as indicated (n≧4, *p<0.001).
Mutagenesis—Starting from KCNQ cDNAs, the KCNQ2 point mutants were constructed by recombinant PCR and verified by sequencing.
as §2, with “Pipette solution contained (mM): KCl 145, MgCl2 1, EGTA 5, HEPES 10, MgATP 5 (pH 7.3); extracellular solution contained (mM): NaCl 140, KCl 3, CaCl2 2, MgCl2 1.5, HEPES 10, glucose 10 (pH 7.4).” left out, “Series resistance compensation was also used and set to 60-80%.” left out

hippocampal neurons = experiment: Membrane potential and elicited action potentials of isolated hippocampal neurons; assay type: cell-based, rat; details: 10 μM ZnPy
Method: FIG. 10. ZnPy potentiation of native M-current. A. M current recorded from an isolated rat dorsal root ganglion neuron, Vh was −60 mV, stepped to −20 mV, followed by a step to −50 mV, and stepped back to −20 mV. B. Histograms show M-current amplitudes in the presence and absence of 10 μM ZnPy (n=10, * p<0.001). M-current amplitudes were measured by fitting the IM relaxation with an exponential equation. The recording bath solution includes 1 μM TTX, 0.2 mM TEA, 1 mM 4-AP, 50 μM CNQX, and 10 μM bicuculline. C. Membrane potential of an isolated hippocampal neuron was monitored when 10 μM ZnPy was applied in bath solution followed by the addition of 15 μM linopirdine. D. Action potentials elicited by 200 pA current injection to a patched hippocampal neuron. The ZnPy treatments are as indicated.
Neuron Culture—Dorsal root ganglia (DRG) was collected from fourteen-day-old CD rat and incubated in collagenase (sigma, 500 U/ml, 15 min) and then trypsin (Sigma, 1 mg/ml, 30 min) at 37° C. Single DRG neurons were isolated by mechanical trituration with a fire-polished glass Pasteur pipette. Hippocampal tissue was dissected out from CD rat postnatal day 0. The tissue was digested with papain (Worthington Biochem, 20 U/ml, 30 min) and resuspended into single cells. The single-cell suspension was plated onto a monolayer of glial cells that were growing on coated cover slips. Cytosine-1-D-arabinofuranoside at 5 μM was added into the culture medium 24-48 hours later to arrest glial cell proliferation. The culture medium consisted of Neurobasal™ medium with B-27 supplement (Gibco), penicillin/streptomycin and 2 mM L-glutamine. All cells were maintained at 37° C. with 5% CO2 prior to recording.
as §3, with “used. Pipettes were pulled from borosilicate glass capillaries (TW150-4, World Precision Instruments, Sarasota, Fla.).” for “used.”

T6 sequence (Q00975 whole entry): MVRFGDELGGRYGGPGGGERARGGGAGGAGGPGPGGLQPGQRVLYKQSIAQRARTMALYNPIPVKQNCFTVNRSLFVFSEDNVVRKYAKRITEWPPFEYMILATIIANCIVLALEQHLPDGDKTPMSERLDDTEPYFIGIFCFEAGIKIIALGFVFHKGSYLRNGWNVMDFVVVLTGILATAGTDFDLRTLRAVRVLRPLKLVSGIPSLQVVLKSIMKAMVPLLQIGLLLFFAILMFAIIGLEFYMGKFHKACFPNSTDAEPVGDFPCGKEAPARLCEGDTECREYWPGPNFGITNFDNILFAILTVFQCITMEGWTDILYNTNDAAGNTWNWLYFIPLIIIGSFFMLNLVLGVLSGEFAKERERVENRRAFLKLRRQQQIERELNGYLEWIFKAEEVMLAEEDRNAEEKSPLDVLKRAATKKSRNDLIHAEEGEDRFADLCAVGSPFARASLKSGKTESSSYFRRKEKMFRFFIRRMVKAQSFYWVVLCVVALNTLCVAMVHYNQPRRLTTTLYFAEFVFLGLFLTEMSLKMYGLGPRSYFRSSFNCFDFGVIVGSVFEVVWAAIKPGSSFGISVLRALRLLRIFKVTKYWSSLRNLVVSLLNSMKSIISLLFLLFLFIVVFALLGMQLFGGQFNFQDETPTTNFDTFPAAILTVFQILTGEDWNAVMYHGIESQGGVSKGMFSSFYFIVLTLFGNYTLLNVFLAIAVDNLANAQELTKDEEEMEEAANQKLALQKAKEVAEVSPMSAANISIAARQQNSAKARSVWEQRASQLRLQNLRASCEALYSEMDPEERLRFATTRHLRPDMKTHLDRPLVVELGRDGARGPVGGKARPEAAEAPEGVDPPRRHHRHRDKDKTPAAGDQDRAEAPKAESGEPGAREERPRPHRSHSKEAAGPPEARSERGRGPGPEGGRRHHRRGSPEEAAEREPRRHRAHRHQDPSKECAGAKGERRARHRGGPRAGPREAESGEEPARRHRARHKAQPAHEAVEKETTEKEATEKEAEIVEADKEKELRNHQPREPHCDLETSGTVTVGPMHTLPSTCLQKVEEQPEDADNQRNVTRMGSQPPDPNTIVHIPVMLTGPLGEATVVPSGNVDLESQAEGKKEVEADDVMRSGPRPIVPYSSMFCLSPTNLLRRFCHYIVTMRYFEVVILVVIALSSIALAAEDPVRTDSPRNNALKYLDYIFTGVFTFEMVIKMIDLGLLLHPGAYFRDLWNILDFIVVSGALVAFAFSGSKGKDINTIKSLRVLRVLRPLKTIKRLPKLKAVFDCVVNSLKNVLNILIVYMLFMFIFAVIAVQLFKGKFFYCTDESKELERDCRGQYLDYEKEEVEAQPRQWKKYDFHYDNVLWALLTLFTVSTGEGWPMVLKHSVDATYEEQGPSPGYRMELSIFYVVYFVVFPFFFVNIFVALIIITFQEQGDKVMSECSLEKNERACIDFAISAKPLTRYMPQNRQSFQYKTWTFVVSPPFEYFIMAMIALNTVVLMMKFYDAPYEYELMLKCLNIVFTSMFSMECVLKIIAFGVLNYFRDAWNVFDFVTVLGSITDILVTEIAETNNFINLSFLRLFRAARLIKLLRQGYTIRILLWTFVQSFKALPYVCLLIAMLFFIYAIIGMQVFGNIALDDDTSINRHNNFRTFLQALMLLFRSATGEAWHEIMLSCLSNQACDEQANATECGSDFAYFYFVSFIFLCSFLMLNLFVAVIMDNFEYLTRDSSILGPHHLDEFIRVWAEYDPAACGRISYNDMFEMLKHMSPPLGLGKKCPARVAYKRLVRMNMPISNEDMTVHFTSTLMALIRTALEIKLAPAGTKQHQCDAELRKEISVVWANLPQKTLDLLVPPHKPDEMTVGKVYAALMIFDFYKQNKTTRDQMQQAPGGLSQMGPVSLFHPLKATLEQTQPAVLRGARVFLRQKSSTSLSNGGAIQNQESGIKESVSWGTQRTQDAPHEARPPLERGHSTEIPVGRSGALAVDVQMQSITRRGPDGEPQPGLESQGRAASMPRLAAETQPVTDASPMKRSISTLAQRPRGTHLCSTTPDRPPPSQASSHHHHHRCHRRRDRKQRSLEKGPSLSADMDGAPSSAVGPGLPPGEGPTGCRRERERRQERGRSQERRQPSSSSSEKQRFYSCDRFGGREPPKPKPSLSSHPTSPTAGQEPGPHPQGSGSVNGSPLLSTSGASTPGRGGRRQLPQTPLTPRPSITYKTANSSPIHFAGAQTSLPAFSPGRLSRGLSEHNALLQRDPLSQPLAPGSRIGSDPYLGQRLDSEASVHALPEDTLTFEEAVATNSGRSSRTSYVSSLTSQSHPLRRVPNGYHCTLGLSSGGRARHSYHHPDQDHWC
T6 sequence (P54284 whole entry partner): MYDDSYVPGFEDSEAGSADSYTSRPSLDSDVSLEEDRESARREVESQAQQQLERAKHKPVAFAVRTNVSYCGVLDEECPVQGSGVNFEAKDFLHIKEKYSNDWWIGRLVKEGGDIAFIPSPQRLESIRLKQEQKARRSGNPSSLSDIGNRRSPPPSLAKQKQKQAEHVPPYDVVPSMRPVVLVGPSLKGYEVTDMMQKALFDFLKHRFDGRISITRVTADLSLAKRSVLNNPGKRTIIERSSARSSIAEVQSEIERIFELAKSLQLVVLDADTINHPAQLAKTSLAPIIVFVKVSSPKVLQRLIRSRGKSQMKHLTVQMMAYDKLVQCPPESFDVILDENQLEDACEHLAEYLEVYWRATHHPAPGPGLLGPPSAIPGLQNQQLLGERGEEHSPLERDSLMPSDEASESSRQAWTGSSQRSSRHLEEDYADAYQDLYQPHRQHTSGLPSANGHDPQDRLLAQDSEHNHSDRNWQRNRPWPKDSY
T6 sequence (P54289 25-946 partner limits assumed): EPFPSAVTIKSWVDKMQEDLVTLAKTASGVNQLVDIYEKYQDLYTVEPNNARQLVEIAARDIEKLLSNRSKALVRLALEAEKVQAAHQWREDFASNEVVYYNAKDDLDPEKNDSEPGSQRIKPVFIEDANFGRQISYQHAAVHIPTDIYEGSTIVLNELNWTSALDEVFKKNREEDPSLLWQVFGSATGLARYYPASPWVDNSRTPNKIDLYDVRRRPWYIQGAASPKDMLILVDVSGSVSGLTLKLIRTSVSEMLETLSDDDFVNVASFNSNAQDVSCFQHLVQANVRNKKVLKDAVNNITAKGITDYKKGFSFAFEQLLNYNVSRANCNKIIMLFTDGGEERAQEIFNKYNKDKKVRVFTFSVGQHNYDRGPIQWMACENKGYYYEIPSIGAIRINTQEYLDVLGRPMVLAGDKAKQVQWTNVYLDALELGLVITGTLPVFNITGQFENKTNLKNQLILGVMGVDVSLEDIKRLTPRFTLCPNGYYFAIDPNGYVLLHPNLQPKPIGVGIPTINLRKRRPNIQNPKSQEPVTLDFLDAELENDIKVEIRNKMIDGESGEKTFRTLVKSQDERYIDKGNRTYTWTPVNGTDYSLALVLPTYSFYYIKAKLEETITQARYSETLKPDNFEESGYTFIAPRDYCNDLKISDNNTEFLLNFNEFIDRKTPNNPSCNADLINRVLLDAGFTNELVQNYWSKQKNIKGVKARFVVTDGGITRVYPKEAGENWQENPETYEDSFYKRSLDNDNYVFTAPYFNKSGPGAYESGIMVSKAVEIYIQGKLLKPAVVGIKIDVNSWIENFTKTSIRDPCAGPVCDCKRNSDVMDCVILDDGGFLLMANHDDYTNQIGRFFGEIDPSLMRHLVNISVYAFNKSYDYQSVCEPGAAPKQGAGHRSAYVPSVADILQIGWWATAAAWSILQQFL
T6 sequence (P54289 947-1103 partner limits assumed): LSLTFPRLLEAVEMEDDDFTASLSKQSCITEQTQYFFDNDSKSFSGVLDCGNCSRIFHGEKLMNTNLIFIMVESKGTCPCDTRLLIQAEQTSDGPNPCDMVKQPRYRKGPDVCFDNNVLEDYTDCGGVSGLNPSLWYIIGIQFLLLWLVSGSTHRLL
T5 sequence (Q14721 whole entry): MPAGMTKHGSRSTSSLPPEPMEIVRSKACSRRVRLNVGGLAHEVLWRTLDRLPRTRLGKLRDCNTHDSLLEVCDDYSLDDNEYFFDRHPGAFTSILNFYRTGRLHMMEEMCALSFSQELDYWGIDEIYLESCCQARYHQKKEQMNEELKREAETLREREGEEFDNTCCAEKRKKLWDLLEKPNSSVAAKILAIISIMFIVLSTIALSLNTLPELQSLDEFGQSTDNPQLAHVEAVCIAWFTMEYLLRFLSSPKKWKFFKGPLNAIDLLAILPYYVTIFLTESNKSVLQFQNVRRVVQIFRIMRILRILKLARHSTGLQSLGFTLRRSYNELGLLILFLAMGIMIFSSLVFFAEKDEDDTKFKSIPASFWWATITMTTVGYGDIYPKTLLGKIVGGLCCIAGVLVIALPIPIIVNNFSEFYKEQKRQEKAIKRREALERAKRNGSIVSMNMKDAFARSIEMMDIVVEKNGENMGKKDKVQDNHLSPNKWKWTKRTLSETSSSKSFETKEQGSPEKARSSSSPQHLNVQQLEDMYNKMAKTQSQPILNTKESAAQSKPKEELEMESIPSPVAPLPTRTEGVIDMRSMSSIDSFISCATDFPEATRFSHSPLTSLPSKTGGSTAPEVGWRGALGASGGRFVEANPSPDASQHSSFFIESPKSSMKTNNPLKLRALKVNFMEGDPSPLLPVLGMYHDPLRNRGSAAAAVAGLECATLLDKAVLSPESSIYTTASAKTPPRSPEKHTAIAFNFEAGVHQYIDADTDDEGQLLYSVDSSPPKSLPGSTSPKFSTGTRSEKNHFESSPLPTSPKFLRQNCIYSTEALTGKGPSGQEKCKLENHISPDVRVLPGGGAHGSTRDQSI

With `S=c1ccccn1[O][Zn][O]n1ccccc1=S` [ZnPy, Zinc Pyrithione] the “hyperpolarizing shift of V1/2” value (KCNQ2/3 heteromultimers; 10 μM ZnPy) was 24.4±0.8 mV, the “V1/2 in presence of compound” value (KCNQ2/3 heteromultimers; 10 μM ZnPy, control −20.3±0.8 mV) was −44.7±1.9 mV and the activation time constant (KCNQ2/3 heteromultimers; +50 mV, with ZnPy, control 75.6±4.9) was 157.8±23.5 milliseconds. The “Hill coefficient of dose dependent curve” value (KCNQ2/3 heteromultimers; KCNQ2/3) was 1.4, the EC50 (KCNQ2/3 heteromultimers; KCNQ2/3 heteromultimers, read-out: EC50 of midpoint of activation voltage (V1/2) shift) was 2.4 ± 0.4 µM and the deactivation time constant (KCNQ2/3 heteromultimers; −120 mV, 10 μM ZnPy, control 12.4±0.7) was 41.9±6.4 milliseconds. For the same compound, the “change of V1/2” value (KCNQ3) was “no change on V1/2”, the current potentiation (KCNQ3; extracellular) was “did not show any current potentiation; also recorded: has no effect on KCNQ3” and the “effect on channel activity” value (KCNQ1) was “potentiated; also recorded: potentiates KCNQ1”. The “effect on channel activity” value (KCNQ4) was “potentiated”, the “potentiation of channel activity” value [1] was “did not potentiate” and the “potentiation of channel activity” value (N-type calcium channel) was “did not potentiate”. The “sensitivity of mutant to compound” value (KCNQ2 (W236L)) was “comparable sensitivity to KCNQ2 wild type; also recorded: fully effective in potentiating”, the “effect on membrane potential” value (hippocampal neurons) was “noticeable hyperpolarization of membrane potential” and the “effect on repetitive firing elicited by current injection” value (hippocampal neurons; 200 pA current injection) was “immediately abolished the repetitive firing”.
